{"source": "patent US5821231A", "about": "“CS-1 peptidomimetics, compositions and methods of using same” (Cytel Corporation, priority 1995, dated 1998)", "key": {"VLA-4": {"biological_target": "VLA-4 (Homo sapiens, UniProt P05556+P13612)", "sequence (P13612 34-1032)": "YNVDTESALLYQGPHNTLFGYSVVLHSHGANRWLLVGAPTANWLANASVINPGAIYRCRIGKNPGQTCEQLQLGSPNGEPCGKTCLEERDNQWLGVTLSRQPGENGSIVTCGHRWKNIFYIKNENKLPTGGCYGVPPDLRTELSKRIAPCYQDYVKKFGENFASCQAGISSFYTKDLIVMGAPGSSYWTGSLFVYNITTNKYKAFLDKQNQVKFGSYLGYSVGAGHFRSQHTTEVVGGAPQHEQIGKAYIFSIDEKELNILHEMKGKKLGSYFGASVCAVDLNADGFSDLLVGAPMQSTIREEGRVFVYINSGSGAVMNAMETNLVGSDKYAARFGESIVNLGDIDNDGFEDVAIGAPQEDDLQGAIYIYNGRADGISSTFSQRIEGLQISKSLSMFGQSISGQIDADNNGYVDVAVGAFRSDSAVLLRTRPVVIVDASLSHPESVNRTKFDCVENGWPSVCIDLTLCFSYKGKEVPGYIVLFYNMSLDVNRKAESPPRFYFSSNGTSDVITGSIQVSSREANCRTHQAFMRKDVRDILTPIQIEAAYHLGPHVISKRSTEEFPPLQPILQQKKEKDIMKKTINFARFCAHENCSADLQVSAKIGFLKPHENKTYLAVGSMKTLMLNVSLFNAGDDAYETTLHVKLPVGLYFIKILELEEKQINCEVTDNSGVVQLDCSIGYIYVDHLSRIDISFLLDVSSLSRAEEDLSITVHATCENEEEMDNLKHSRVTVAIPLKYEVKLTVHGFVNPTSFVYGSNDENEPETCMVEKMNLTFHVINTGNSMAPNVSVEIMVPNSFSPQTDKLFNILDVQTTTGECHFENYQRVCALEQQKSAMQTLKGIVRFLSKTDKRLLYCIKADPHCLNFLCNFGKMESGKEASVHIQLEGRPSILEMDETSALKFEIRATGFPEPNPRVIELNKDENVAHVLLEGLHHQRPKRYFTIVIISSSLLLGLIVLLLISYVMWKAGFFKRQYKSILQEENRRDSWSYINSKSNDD", "sequence (P05556 21-798)": "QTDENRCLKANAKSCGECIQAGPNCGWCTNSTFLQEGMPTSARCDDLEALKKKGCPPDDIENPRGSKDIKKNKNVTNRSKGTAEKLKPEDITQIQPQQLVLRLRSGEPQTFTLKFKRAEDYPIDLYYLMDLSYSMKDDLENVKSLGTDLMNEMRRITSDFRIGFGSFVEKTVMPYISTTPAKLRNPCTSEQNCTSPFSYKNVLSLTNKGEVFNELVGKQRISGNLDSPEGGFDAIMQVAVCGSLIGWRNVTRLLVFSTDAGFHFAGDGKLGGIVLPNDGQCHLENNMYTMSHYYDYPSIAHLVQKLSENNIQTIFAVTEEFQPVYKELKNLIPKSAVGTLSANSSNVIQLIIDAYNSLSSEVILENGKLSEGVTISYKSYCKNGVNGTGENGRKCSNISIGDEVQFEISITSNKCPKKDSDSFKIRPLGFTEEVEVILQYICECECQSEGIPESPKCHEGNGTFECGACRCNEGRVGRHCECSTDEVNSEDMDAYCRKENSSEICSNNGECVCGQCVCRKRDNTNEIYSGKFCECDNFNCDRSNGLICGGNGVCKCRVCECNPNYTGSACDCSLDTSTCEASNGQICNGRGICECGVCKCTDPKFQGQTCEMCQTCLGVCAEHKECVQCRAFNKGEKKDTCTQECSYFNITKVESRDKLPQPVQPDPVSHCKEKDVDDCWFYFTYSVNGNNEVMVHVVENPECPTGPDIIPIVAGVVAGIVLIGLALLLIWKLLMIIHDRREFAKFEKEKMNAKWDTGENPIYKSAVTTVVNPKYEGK", "experiment": "In vitro binding assay: 51Cr-labeled Jurkat cells to solid phase-bound CS-1 compound (SEQ ID NO:1)", "type": "cell-based", "parameters": "inflammatory cells that contain the VLA-4 receptor [Jurkat cells; host or cells: Jurkat cells (human T lymphoblastic line)", "method": "Binding inhibition is measured here as a concentration of compound that inhibits one-half the binding between a standard number of Jurkat cells and a standard amount of CS-1 compound bound to the surface of a microtiter plate well. Those concentrations are conveniently expressed as IC50 values, smaller numbers indicating a lower concentration required to inhibit 50 percent binding and therefore greater potency. Further specifics of this assay are provided hereinafter.\nJurkat cells (ATCC TIB 152), a human T lymphoblastic line, labeled with ^51 chromium were used to assay in vitro binding inhibition provided by various compounds discussed herein.\nThe plates were prepared as follows: The 25-mer CS-1 compound (SEQ ID NO:1) dissolved at 0.5-1 μg/ml in a buffer of 0.1M NaHCO3 at pH 9.5 that also contained 10 μg/ml of bovine serum albumin (BSA) or a conjugate of the CS-1 compound linked to ovalbumin (CS-1-OVA) dissolved at 1-2.5 μg/ml in the same buffer was used as the substrate. Each well of the microtiter plates was coated with 50 μl of substrate or buffer alone for controls. The wells were permitted to dry out completely and were then rinsed twice with PBS at pH 7.4. Non-specific binding sites of each well were then blocked using 200 μl per well of RPMI/1 percent BSA for two hours at room temperature.\nJurkat cells (3-5×10^6 cells) were placed into a 15 ml Falcon™ round-bottom tube with a cap. The tube was centrifuged, and the extra medium was then removed.\nTwo hundred microliters of a ^51 Cr labeling solution were added to the centrifuged cells and maintained in contact with the cells for 90-120 minutes in a warm room. […] Longer contact times provide a greater amount of labeling but lower cell viability.\nThe labeled cells are washed with (i) complete medium, (ii) 1 mM EDTA/PBS and then (iii) RPM1/1 percent BSA free of serum components. The cells are centrifuged after each washing. The cells are finally resuspended in serum-free RPMI/1 percent BSA at a concentration of 1×10^6 viable cells/ml, which provides a concentration that is diluted by one-half in the assay.\nInhibitor compounds are prepared as stock solutions at 20 mg/ml in DMSO in 1.5 ml cryogenic screwcap vials, and were stored at -70° C. Using Flow™ round-bottom or V-bottom microtiter plates, the inhibitor compounds were prepared at twice the assay concentration in RPMI/1 percent BSA at 60 μl/well.\nFour initial dilutions were typically used.\nThe ^51 Cr-labeled cells ([…] at 60 μl/well) were then admixed with the diluted compound solutions. The admixtures were maintained at room temperature (about 22° C.) for 30 minutes.\nOne hundred microliters of each inhibitor compound/cell admixture were transferred to the substrate-coated wells. This was done in triplicate for each dilution. The resulting plates were incubated for 30 minutes at 37° C. and then washed gently three times with RPMI/1 percent BSA at 200 μl/well. Binding was observed microscopically, particularly after the second wash.\nThe bound cells were then lysed by the addition of a 0.5 percent solution of sodium dodecylsulfate in water at 100 μl/well. The resulting solutions were then processed for counting and calculation of IC50 values following usual procedures.\nThe data of Table 1 are normalized to the binding of SEQ ID NO: 3. […] Multiple assays for the same compound were averaged."}, "[1]": {"tested_on": "Porcine peripheral blood lymphocytes", "experiment": "In vitro porcine allograft model: transendothelial lymphocyte migration", "type": "cell-based", "conditions": "10 μg/ml in the medium; IL-1β-stimulated SMC", "method": "A similar study was carried out in vitro using porcine coronary artery endothelial cells (EC; as are present in the IEL) and smooth muscle cells (SMC; as are present in the medial layer of the artery). The two cell types were cultured using a membrane transwell system, with the SMC on the bottom layer in M-199 medium (Gibco Labs.). The SMC were stimulated with 100 ng/ml of interleukin-1β (IL-1β) for 24 hours prior to the start of the assay. Porcine peripheral blood lymphocytes were separated by Ficoll-Hypaque, radiolabeled and incubated overnight (about 18 hours) on the EC."}}, "note": "Square brackets hold non-standard residues; d marks the D form. Peptide text beside a SMILES is read from it. * marks the point of attachment. PhAc = O=C(Cc1ccccc1)*"}
{"smiles": "CC(C)C[C@H](NC(=O)[C@H](CC(=O)O)NC(=O)Cc1ccccc1)C(=O)N[C@@H](Cc1ccccc1)C(=O)N1CCC[C@@H]1C(N)=O", "note": "[N-phenylacetyl-Asp-Leu-Phe-D-Pro-NH2, reference compound] (PhAc-DLF[dP]-NH2)", "values": [{"measurement": "Relative Potency", "setting": "VLA-4; binding inhibition potency (IC50) relative to standard compound of SEQ ID NO:3 = 1, about one-tenth or less assigned zero", "value": 0}, {"measurement": "VLA-4 binding inhibition (in words)", "setting": "VLA-4; compared with standard 10-mer of SEQ ID NO:3 or other peptides", "value": "no inhibition of VLA-4"}, {"measurement": "reduction of transendothelial lymphocyte migration", "setting": "[1]", "value": "did not reduce migration"}]}
